Measured values as given in ChEMBL document CHEMBL4513153, “CO-ADD screening of University of Northwestern St. Paul (MN, USA) compounds”.

Legend:
Klebsiella pneumoniae = test: microbe, parasite or virus in culture; conditions: ATCC 700603, 18 h, ASSAY_TEST Inhibition of Bacterial Growth, detection method Absorption (OD600), MEDIA CAMHB, plate type 384well, NBS, CORNING #3640
Description: Antibacterial activity against Klebsiella pneumoniae MDR ATCC 70063 (CO-ADD:GN_003); MIC in CAMBH media using NBS plates, by OD(600)

Acinetobacter baumannii = test: microbe, parasite or virus in culture; conditions: ATCC 19606, 18 h, ASSAY_TEST Inhibition of Bacterial Growth, detection method Absorption (OD600), MEDIA CAMHB, plate type 384well, NBS, CORNING #3640
Description: Antibacterial activity against Acinetobacter baumannii ATCC 19606 (CO-ADD:GN_034); MIC in CAMBH media using NBS plates, by OD600

Candida albicans = test: microbe, parasite or virus in culture; conditions: ATCC 90028, ASSAY_TEST Inhibition of Fungal Growth, detection method Absorption (OD530), plate type 384well, NBS, CORNING #3640
Description: Antifungal activity against Candida albicans ATCC 90028 (CO-ADD:FG_001); MIC in YNB media using NBS plates, by OD630

Escherichia coli = test: microbe, parasite or virus in culture; conditions: ATCC 25922, 18 h, ASSAY_TEST Inhibition of Bacterial Growth, detection method Absorption (OD600), MEDIA CAMHB, plate type 384well, NBS, CORNING #3640
Description: Antibacterial activity against Escherichia coli ATCC 25922 (CO-ADD:GN_001); MIC in CAMBH media using NBS plates, by OD(600)

Staphylococcus aureus = test: microbe, parasite or virus in culture; conditions: ATCC 43300, 18 h, ASSAY_TEST Inhibition of Bacterial Growth, detection method Absorption (OD600), MEDIA CAMHB, plate type 384well, NBS, CORNING #3640
Description: Antibacterial activity against Staphylococcus aureus MRSA ATCC 43300 (CO-ADD:GP_020); MIC in CAMBH media, using NBS plates, by OD(600)

HEK293 = test: cells; assay type: functional; conditions: Homo sapiens, ATCC CRL1573, HEK293; ASSAY_TEST Inhibition of Cell Viability; detection method Resazurin; Fluorescence (ex560/em590); MEDIA DMEM with 10% FBS; plate type 384well; TC; CORNING #3712; time 18 hr
Pseudomonas aeruginosa = test: microbe, parasite or virus in culture; conditions: ATCC 27853, 18 h, ASSAY_TEST Inhibition of Bacterial Growth, detection method Absorption (OD600), MEDIA CAMHB, plate type 384well, NBS, CORNING #3640
Description: Antibacterial activity against Pseudomonas aeruginosa ATCC 27853 (CO-ADD:GN_042); MIC in CAMBH media using NBS plates, by OD(600)

Description for Cryptococcus neoformans: Antifungal activity against Cryptococcus neoformans H99 ATCC 208821 (CO-ADD:FG_002); MIC in YNB media using NBS plates, by Resazurin OD(600-570)

Row | MIC (Klebsiella pneumoniae) | MIC (Acinetobacter baumannii) | MIC (Candida albicans) | MIC (Escherichia coli) | MIC (Staphylococcus aureus) | MIC (Cryptococcus neoformans) | MIC (Pseudomonas aeruginosa) | SMILES | CC50 (HEK293)
1 | > 32 µg/mL | > 32 µg/mL | > 32 µg/mL | > 32 µg/mL | > 32 µg/mL | 16 µg/mL | > 32 µg/mL | Cl.N=C(N)Nc1nc(-c2c[nH]c3ccccc23)cs1 | 9.6 µg/mL
2 | > 32 µg/mL | > 32 µg/mL | > 32 µg/mL | > 32 µg/mL | > 32 µg/mL | > 32 µg/mL | > 32 µg/mL | NC(N)=Nc1nc(-c2csc3ccccc23)cs1 | > 32 µg/mL
